In data set [1] the test system is Mycobacterium smegmatis (proxy for M. tuberculosis). Briefly: Killing activity against a range of bacteria. The data set is classed as cell-based.
Data set [2] concerns phage PEV2. Briefly: Inactivation of phage PEV2 (PFU titer). Also noted: species or system Pseudomonas phage PEV2. The method, then:
Phage PEV2 was diluted to 10^9 PFU/mL in phage buffer and treated with ZnPor (25 μg/mL) for a total of 4 hours. A 300 W light was used to photoactivate ZnPor_light treatments for 20 minutes. Measurements of plaque forming units (PFU/mL) were taken at each timepoint by serially diluting phage to determine titer using a soft agar overlay protocol. Data from 3 separate experiments represents total mean±standard error, total (n=8).

The test system of data set [3] is PsA PAO1 biofilm. Briefly: PAO1 biofilm on coupons, LIVE/DEAD stain, confocal microscopy. The data set is classed as cell-based, Pseudomonas aeruginosa. The method, then: FIG. 2A: ZnPor (alone) stained biofilm. […] Length of size bar: […].
FIGS. 15A-15B show the biofilms of PAO1 treated with various concentrations of ZnPor (II) and in combination with PEV2 phage. Biofilms of strain PAO1 were grown on coupons cut from polyethylene in MSG media for approximately 16-18 hours. Overnight media was replaced with fresh PBS and were treated with (FIG. 15B) ZnPor (II) only at concentrations of 5, 10 or 25 μg/mL, and incubated for 2 h, (FIG. 15A) phage PEV2 only (MOI=10:1) for 4 h, or (FIG. 15B) ZnPor (II) treatment for 2 h followed by the addition of phage PEV2 (MOI of 10:1) and incubated for an additional 4 h. Coupons were gently washed in distilled water and were treated with LIVE/DEAD™ stain. All coupons were imaged using confocal laser scanning […] microscopy (CLSM) at 60×. Green=LIVE Red=DEAD.
PAO1 was grown overnight in MSG at 37 C with shaking. CDC Bioreactors with PE coupons were inoculated to a final OD of 0.15 in cation adjusted Mueller Hinton broth. Biofilms were grown 16-18 h at 37 degrees C. with 50 rpm stirring. Control biofilm is shown (FIG. 20A). All overnight media in bioreactors were replaced with fresh PBS. Bioreactors treated with ZnPor (II) at 4 μg/mL were left to incubate for 2 hours without stirring. Bioreactors treated with either whole PEV2 phage or the purified DNA genome of PEV2 were incubated for 24 hours without stirring. […]

The format of data set [4] is physicochemical. From the text: As used herein, “water soluble” refers to a property wherein a material is miscible in water, or in other words, is a capable of forming a homogenous solution with water at ambient conditions.
In data set [5] the test system is ex-vivo grown lung cells. Nature of the data set: Toxicity to ex-vivo grown lung cells versus effective concentration.
Data set [6] concerns Listeria monocytogenes. Nature of the data set: Killing of Listeria inside macrophages. The data set is classed as cell-based. The following applies: macrophages treated with ZnPor (II) vs control. The method, then: A growing number of bacteria are being discovered as having the ability to enter and grow within human cells. The model bacterium used to test this was: Listeria monocytogenes. This bacterium is well known for its ability to survive inside human cells and using actin tails (sourced from the host cell) to propel themselves out of one cell and into another. The L. monocytogenes bacteria were incubated with macrophages. […] Then macrophages were cracked open and plated on antibiotic plates to get a viable count of the number of cells taken up (control) and compared to macrophages treated with ZnPor (II).

The subject of data set [7] is PsA PAO1. Briefly: Minimum inhibitory concentration (MIC) of ZnPor (II).
In data set [8] the test system is PsA. Nature of the data set: Mouse model of PsA lung infection. The data set is classed as in vivo, mice. The method, then: Mice were infected with PsA intratracheally, and subsequently treated with 125 μM ZnPor intratracheally. Bronchoalveolar lavage (BAL) was collected at 16 h. Bacterial titers were measured in BAL. *p<0.05, Mann-Whitney U. Representative of one experiment.
Based on in vitro experiments showing significant bactericidal activity of ZnPor against PsA and minimal toxicity of ZnPor in vitro in airway and alveolar epithelial cells as well as in monocytes/macrophages, the next experiments examined efficacy and safety of ZnPor in PsA infection in mice. Wildtype (WT) mice were anesthetized and infected with 5×10^6 CFU PsA via intratracheal route. Immediately following infection, mice were anesthetized again and treated with ZnPor (125 μM) or PBS (negative control). Mice were monitored for clinical signs of toxicity. At 16 h, mice were sacrificed and bronchoalveolar lavage (BAL) and lungs were isolated.

One substance from patent US11975009B2, “Use of zinc porphyrin as an antimicrobial” (ZNABLE LLC, priority 2022, dated 2024) can be followed below.

With “meso-5,10,15-tris(N-methyl-4-pyridyl)-20-(pentafluorophenyl)porphyrinatozinc(II), tris-p-toluene sulfonate [ZnPor]”, the killing result in data set [1] was “effective at killing”. Besides, the “effect of photoactivation on killing” value in data set [2] (with photoactivation) was “quicker and greater killing”. In data set [2] (without light activation), the inactivation of viruses entry is recorded as “able to inactivate viruses without light activation”. For the same substance, the “effect on bacteriophage PEV2” value in data set [2] (without photoactivation) was “inactivates”. Besides, the biofilm clearing entry in data set [3] (25 μg/mL ZnPor alone, 2 h) is on record as “almost complete clearing of the biofilm”. The “LIVE/DEAD state of biofilm” value in data set [3] (pre-treated with ZnPor (II) 4 μg/mL before adding PEV2 whole phage) is listed as “only dead cells”. Moreover, the water solubility entry in data set [4] is listed as “water soluble”. Further, in data set [5], the “effective concentration, fold lower than that causing any toxicity” value is “up to 100 ×”. Further, in data set [6], the “number of Listeria cells in the macrophages” value is on record as “a log reduction”. The substance also had an MIC in data set [7] of 4 µg/mL. Further, the “bacterial titers in BAL and lung homogenates” value in data set [8] (WT mice, 5×10^6 CFU PsA intratracheal, ZnPor 125 μM, 16 h) is on record as “significantly decreased PsA infection”. For the same substance, in data set [8] (ZnPor-treated versus untreated mice, 125 μM), the clinical toxicity result is given as “No clinical toxicity was observed”.
